Measured values from article PMC5638916, “CETSA quantitatively verifies in vivo target engagement of novel RIPK1 inhibitors in various biospecimens” (Scientific Reports, 2017).
Where two headings read alike, the source gives them in different places.

Legend:
HT-29 cells = experiment: HT-29 necroptosis assay; format: cell-based, human; settings: TNF-α + AT-406 + zVAD-FMK, 16–20 h, read-out: HT29-Necroptosis (IC50) (converted)
Method: The efficacies of RIP1 inhibitors were tested in vitro using HT-29 cells and L929 cells in a necroptosis assay. For HT-29 necroptosis assay, frozen HT-29 cells were thawed and diluted to 1.5 × 10^5 cells ml^−1 in McCoy’s 5 A Medium (16600108, Invitrogen) supplemented with 10% FBS, 100 U ml^−1 penicillin, and 100 μg ml^−1 streptomycin. A 20 μl aliquot of cell suspension was added to each well of a 384-assay plate and the cell culture plates were incubated for 16–20 h at 37 °C, 5% CO2. After overnight incubation, 2.5 μl of inhibitor dissolved in culture medium was added to each well of the cell plates, and then each well was treated with 2.5 μl of necroptosis inducer containing […], AT-406, and zVAD-FMK solution at final concentrations of 200 ng ml^−1, 10 μM, and 200 μM, respectively. Lidded plates were incubated for 16–20 h at 37 °C, 5% CO2. The next day, the supernatant of culture medium in each well was evaluated with CytoTox 96 Non-Radioactive Cytotoxicity Assay (G1780, Promega) according to the manufacturer’s instructions. The absorbance of the test plate was measured by 2103 EnVision Multilabel plate reader.
A, no necroptosis inducer; B, necroptosis inducer; X, necroptosis inducer plus test inhibitor. IC50 values were calculated with XLfit software (IDBS) using a four-parameter logistic curve.

phospho (Ser-345)-MLKL = experiment: Mouse phospho (Ser-345)-MLKL ELISA assay in L929 cells; format: cell-based; settings: read-out: L929-pMLKL (IC50)
Method: (§1) estimated using a four-parameter logistic curve using GraphPad Prism 6.01 software (GraphPad Software Inc., La J olla, CA, USA). All of the data are shown as mean ± SEM.
Mouse phospho-MLKL ELISA assay. Phospho- MLKL in L929 cells were detected b y gen eral sandwich E LISA . L929 cell l ysat es stimulated with necroptosis inducer wer e pr epar ed in the same manner as for the in vitro necroptosis assay. The protein content of each cell l ysates was adjusted to 2 00–300 µg m l –1 to be normalised. Then 100 µl of normalised samples were added onto 96-well ELIS A pl ates (442404, Nunc) whi ch had been coated with 100 µl of anti-mouse MLKL Ab (1 µg ml –1 in PBS) overnight at 4°C, and incubated for 1h at room temperatur e. Nex t, plates were incub ated with 100 µl of anti- phospho- M LKL Ab (1 µg m l –1 in PBS supplemented with 1% BSA and 0.05% Tween20) for 1h at room temperature. Then, plates were reacted with 100 µl of anti-rabbit IgG HRP for 1h followed b y detection with 100 µl of TM B. After stopping the reaction b y adding 100 µl of 0.5 M H2SO4, plates wer e r ead on a spectrophotometer, Viento® (DS Pharma Biomedical) at A450.

L929 cells = experiment: L929 necroptosis assay; format: cell-based; settings: mouse TNFα + Z-VAD-FMK, 4 h
Method: For mouse L929 necroptosis assay, L929 cells were seeded to a 96-assay plate at 3.0 × 10^4 cells/120 μl in RPMI1640 medium (189–02025, WAKO) supplemented with 10% FBS, 100 U ml^−1 penicillin, and 100 μg ml^−1 streptomycin and the cells were cultured for 16–20 h at 37 °C, 5% CO2. After overnight incubation, the cells were treated with 15 μl of inhibitor containing media followed by the treatment with 15 μl of necroptosis inducer containing mouse TNFα and Z-VAD-FMK at final concentration of 20 ng ml^−1 and 20 μM, respectively, and incubated for 4 h. The cytotoxicity assay was conducted in the same way as the HT-29 necroptosis assay.

[1] = tested on: MLKL phosphorylation (p-MLKL); experiment: Immunoblot of MLKL phosphorylation in isolated CD11b+Ly-6G- monocytes; format: cell-based, mouse; settings: isolated CD11b+Ly-6G- monocyte cells
Method: reaction. […] An excitation filter of
Inhibition rate was ex pressed as percent
(%) inhibition of internal assay controls. Percentage inhibition was calculated from the signal […]
For concentration response
(IDBS) using a four-parameter logistic curve. The value of Ki (the inhibitory constant) was […]
In vitro and ex vivo whole blood necroptosis assay. For the isolation of mouse monoc yte […]
density centrifugation over Ficoll-Paque Plus (GE Healthcare). Then, CD11b+/ Ly -6G- […]
manufacturer ’s recommendation. […]
treatment (no stimulation, TSZ stimulation with DMSO control, and TSZ stimulation with […] Nec- 1). As a result, the monocyte and neutrophil fraction was decreased, in which fractions onl y the monocyte fraction was restored by the treatment of RIPK1 inhibitor. (b) Monocyte cell number was counted as CD11b+/Ly-6G- population by FACS staining for further confirmation, since CD11b+ fraction contains Ly-6G+ neutrophil population. The left-hand graph indicates the CD11b+Ly-6G- monocyt e population which was calculated from flow c ytometr y analysis. Representative plots are indicated in the right- hand panels in which CD11b+/ Ly-6G- population are shown as blue dots. Significant reduction in monocyte […]
25 treatment. (c) C D 1 1 b + Ly -6G- monoc yte cells were isolated as des cribed in Supplementary Fi g. 4b and anal ysed b y i mmunoblotting using the indicated antibodies. […]

[2] = tested on: CD11b+/Ly-6G- monocytes in mouse whole blood; experiment: In vitro whole blood necroptosis assay (monocyte cell death); format: cell-based; settings: for restoration of monocyte number/fraction after TSZ stimulation: FACS
Method: For in vitro whole blood assa y, 40 µl of peripheral blood were added to each well of the 96-well plate containing 12 µl of the appropriate concentration of inhibitors and 56 µl of RPMI1640 medium supplemented with 100 U ml –1 penicillin and 100 µ g ml–1 streptom ycin.
After 30 min inhibitor incubation, 12 µ l of mixture of necroptosis inducer including mouse TNF-α, AT -406, and zVAD-FMK was added to each well (final concentrations of 10 ng ml–1, 1 µM, and 20 µM, respectively), and then the cells were incubated for 16–20 h at 37°C with 5% CO2. After overnight incubation, cultured blood cells were mixed with Mouse BD Fc Block™ (553142, BD Biosciences) to block Fc receptor followed by the reaction with appropriate antibodies for 30 min on ice. Then, red blood cells were eliminated b y adding 1x lysing buffer (555899, BD Biosciences) and the cells were washed once with PBS supplemented with 1% FBS. Cells were anal ysed on an SORP LSRII Fortessa or a SORP FA C S C anto II flow c ytometer (BD Biosciences).
For ex vivo experiments, 40 µl of peripheral blood was mixed with 68 µl of RPMI1640 and resulting 108 µ l of diluted blood were added to each well of a 96- assa y pl ate with 12 µ l of mixture of necroptosis inducer mentioned above, and then the cells were incubated for 16–20 h at 37°C with 5% CO 2. The next day, the cells were collected and monocyte population was anal ysed b y flow cytometry following the procedure described above. Percentage inhibition was calculated from the signal intensity of FACS anal ysis b y
as §1

human RIPK1 = molecular target: T1, human RIPK1 (Homo sapiens, UniProt Q13546); experiment: CETSA (Tagg curves and ITDRF) for human RIPK1 with HT-29 cells; format: cell-based; settings: compound 30 min, 47 °C for 8 min denature, independent runs reported, read-out: human_ITDRF-CETSA (EC50)
T1 construct: ITDRF values of half-maximal stabilization of endogenous RIPK1; endogenous in cells; host or cells: HT-29
T1 sequence (Q13546 1-671): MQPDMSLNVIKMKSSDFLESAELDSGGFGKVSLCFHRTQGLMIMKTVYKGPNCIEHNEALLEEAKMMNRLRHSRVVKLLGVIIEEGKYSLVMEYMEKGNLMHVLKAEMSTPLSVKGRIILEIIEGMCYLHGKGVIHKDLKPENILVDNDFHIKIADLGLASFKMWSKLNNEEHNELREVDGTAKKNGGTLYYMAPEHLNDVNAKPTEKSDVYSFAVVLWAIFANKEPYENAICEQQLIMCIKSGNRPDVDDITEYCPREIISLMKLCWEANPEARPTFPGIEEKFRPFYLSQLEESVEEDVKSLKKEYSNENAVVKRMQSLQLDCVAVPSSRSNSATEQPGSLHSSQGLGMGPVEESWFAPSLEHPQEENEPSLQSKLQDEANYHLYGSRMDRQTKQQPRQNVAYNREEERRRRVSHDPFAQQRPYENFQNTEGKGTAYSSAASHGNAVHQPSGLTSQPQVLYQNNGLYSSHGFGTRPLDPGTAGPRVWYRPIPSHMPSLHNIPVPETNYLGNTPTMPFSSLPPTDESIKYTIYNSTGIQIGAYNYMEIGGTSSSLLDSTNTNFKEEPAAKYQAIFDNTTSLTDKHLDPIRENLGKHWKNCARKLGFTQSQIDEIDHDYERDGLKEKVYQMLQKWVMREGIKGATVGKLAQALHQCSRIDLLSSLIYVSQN
Method: HT-29 and L929 cells were harvested and suspended with culture media containing 10% FBS to a cell density of 2 × 10^6 cells ml^−1. Mouse peripheral blood was collected from C57BL/6 J (female, 10-week-old, Charles River Japan) and PBMCs were isolated by density centrifugation over Lympholyte®-Mammal Cell Separation Media, Mammalian (CL5110, Cedarlane Laboratories) according to manual instructions. Briefly, approximately 500 μl of blood was carefully overlaid on 250 μl of the separation media so as not to disturb the layer. The samples were immediately spun at 800 g for 20 min at room temperature. After centrifugation, the buffy coat containing the PBMCs was collected with almost 350 μl of plasma to a cell density of approximately 1 × 10^6 cells ml^−1. […]
For the in-cell thermal aggregation curve experiments, the compound solution was mixed with 9-fold volume of the suspension of cells at approximately 2 × 10^6 cells ml^−1 and the cells were incubated for 30 min at 37 °C, 5% CO2. […] Both whole and supernatant samples were analysed by sodium dodecyl sulfate polyacrylamide gel electrophoresis (SDS-PAGE) followed by Western blotting.
For the ITDRF in cell experiments, compounds were serially diluted to generate dose response curves. […] The heat-treated samples were treated as for the sample preparation and analysed with Western blotting following the procedure described above. […]

| SMILES | IC50 (HT-29 cells) [nM] | IC50 (phospho (Ser-345)-MLKL) [nM] | IC50 (HT-29 cells; Homo sapiens) [nM] | IC50 (L929 cells) [nM] | inhibition of TSZ-induced MLKL phosphorylation (p-MLKL) [1] | IC50 ([2]; TNF-α + AT-406 + zVAD-FMK, 16–20 h, monocyte population by FACS) [nM] | restoration of monocyte number/fraction after TSZ stimulation [2] | EC50 (human RIPK1) [nM] |
| --- | --- | --- | --- | --- | --- | --- | --- | --- |
| CN1C(=O)[C@@H](N2CCc3c(nn(Cc4ccccc4)c3Cl)C2=O)COc2ccccc21 [Compound 18, (3S)-3-(2-benzyl-3-chloro-7-oxo-2,4,5,7-tetrahydro-6H-pyrazolo[3,4-c]pyridin-6-yl)-5-methyl-2,3-dihydro-1,5-benzoxazepin-4(5H)-one] | 1.5 | – | – | – | – | – | – | – |
| CNC(=O)c1ccc2c(c1)OC[C@H](N1CCc3c(nn(Cc4ccccc4)c3Cl)C1=O)C(=O)N2C [Compound 23] | – | 16 | 1.8 | 15 | – | – | – | – |
| CN1C(=O)[C@@H](N2CCc3cn(Cc4ccccc4F)nc3C2=O)COc2cc(C#N)ccc21 [Compound 25] | – | 66 | 8.2 | 140 | completely inhibited | 1200 | rescued | – |
| Nc1ncnc2occ(-c3ccc(NC(=O)Nc4cc(C(F)(F)F)ccc4F)cc3)c12 [GSK-compound 27, reference compound] | – | – | 300 | – | – | – | – | – |
| CN1C(=O)C(Cc2c[nH]c3ccccc23)NC1=S (centres unmarked) [Nec-1, Necrostatin-1, reference compound] | – | – | 610 | – | – | – | restored | 1100 |
